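Each compound was tested at five concentrations against cells in 96-well plates for 48 hours. The concentration for full growth arrest is given as TGI.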
Key:
Assay in all cases: DTP human tumour cell line panel, 48 h
CAKI-1 renal = system: CAKI-1 renal
HT29 colon = system: HT29 colon
786-0 renal = system: 786-0 renal
T-47D breast = system: T-47D breast
A549 NSCLC = system: A549 NSCLC
CCRF-CEM leukemia = system: CCRF-CEM leukemia
RPMI-8226 leukemia = system: RPMI-8226 leukemia
PC-3 prostate = system: PC-3 prostate
M14 melanoma = system: M14 melanoma
NCI-H522 lung = system: NCI-H522 lung

CC(=O)c1ccc(Oc2c3ccccc3nc3ccccc23)cc1
TGI (CAKI-1 renal): 17.3 µM | TGI (HT29 colon): 6.69 µM | TGI (786-0 renal): 9.61 µM | TGI (T-47D breast): 18 µM | TGI (A549 NSCLC): 31.7 µM | TGI (CCRF-CEM leukemia): 8.43 µM | TGI (RPMI-8226 leukemia): 9.63 µM | TGI (PC-3 prostate): 20.3 µM | TGI (M14 melanoma): 14.6 µM | TGI (NCI-H522 lung): 25.4 µM

OCc1ccc2c(c1)CC1(C2)Cc2cc3c(cc2C1O)CCC3 (stereo not given)
TGI (CAKI-1 renal): 27 µM | TGI (HT29 colon): 17.5 µM | TGI (786-0 renal): 45.6 µM | TGI (T-47D breast): 9.44 µM | TGI (A549 NSCLC): > 70.7 µM | TGI (CCRF-CEM leukemia): > 44.9 µM | TGI (RPMI-8226 leukemia): 15.8 µM | TGI (PC-3 prostate): 11.7 µM | TGI (M14 melanoma): 13 µM | TGI (NCI-H522 lung): 10 µM

COC(=O)/C=C(/C=C1/C(C#N)=C(N)N(c2ccc(Cl)cc2)C1(C)/C(=C\C(=O)OC)C(=O)OC)C(=O)OC (stereo not given)
TGI (CAKI-1 renal): 45.5 µM | TGI (HT29 colon): 39 µM | TGI (786-0 renal): 32.7 µM | TGI (T-47D breast): 39.5 µM | TGI (A549 NSCLC): > 100 µM | TGI (CCRF-CEM leukemia): > 100 µM | TGI (RPMI-8226 leukemia): > 100 µM | TGI (PC-3 prostate): 35 µM | TGI (M14 melanoma): 39.1 µM | TGI (NCI-H522 lung): 16.4 µM

Cn1c2ccccc2n2c3ncccc3c(=O)c(C#N)c12
TGI (CAKI-1 renal): > 77.3 µM | TGI (HT29 colon): > 100 µM | TGI (786-0 renal): > 81 µM | TGI (T-47D breast): > 100 µM | TGI (A549 NSCLC): > 36.7 µM | TGI (CCRF-CEM leukemia): > 100 µM | TGI (RPMI-8226 leukemia): > 100 µM | TGI (PC-3 prostate): > 100 µM | TGI (M14 melanoma): > 100 µM | TGI (NCI-H522 lung): 35.4 µM

CC(=O)Nc1nc(Cl)cc(NCC2(CO)CCC2)n1
TGI (CAKI-1 renal): > 100 µM | TGI (HT29 colon): > 100 µM | TGI (786-0 renal): > 100 µM | TGI (T-47D breast): > 100 µM | TGI (A549 NSCLC): > 100 µM | TGI (CCRF-CEM leukemia): > 100 µM | TGI (RPMI-8226 leukemia): > 100 µM | TGI (PC-3 prostate): > 100 µM | TGI (M14 melanoma): > 100 µM | TGI (NCI-H522 lung): > 100 µM

O=C(CC(NC(=O)C(F)(F)F)C(=O)O)OCc1ccccc1 (stereo not given)
TGI (CAKI-1 renal): > 100 µM | TGI (HT29 colon): > 100 µM | TGI (786-0 renal): > 100 µM | TGI (T-47D breast): > 100 µM | TGI (A549 NSCLC): > 100 µM | TGI (CCRF-CEM leukemia): > 100 µM | TGI (RPMI-8226 leukemia): > 100 µM | TGI (PC-3 prostate): > 100 µM | TGI (M14 melanoma): > 100 µM | TGI (NCI-H522 lung): > 100 µM

O=C(COc1ccc(OCC(=O)N/N=C/c2ccc(-c3ccc(Cl)cc3Cl)o2)c(Cl)c1)N/N=C/c1ccc(-c2ccc(Cl)cc2Cl)o1
TGI (CAKI-1 renal): > 100 µM | TGI (HT29 colon): > 100 µM | TGI (786-0 renal): > 100 µM | TGI (T-47D breast): > 100 µM | TGI (A549 NSCLC): > 100 µM | TGI (CCRF-CEM leukemia): 34.8 µM | TGI (RPMI-8226 leukemia): 38.4 µM | TGI (PC-3 prostate): > 100 µM | TGI (M14 melanoma): > 100 µM | TGI (NCI-H522 lung): > 100 µM

NC1=CC(=O)c2c(O)ccc(O)c2C1=O
TGI (CAKI-1 renal): 66.8 µM | TGI (HT29 colon): 19.8 µM | TGI (786-0 renal): 21.8 µM | TGI (T-47D breast): 35.7 µM | TGI (A549 NSCLC): 49.6 µM | TGI (CCRF-CEM leukemia): 11.4 µM | TGI (RPMI-8226 leukemia): 44.9 µM | TGI (PC-3 prostate): > 90.6 µM | TGI (M14 melanoma): 22.3 µM | TGI (NCI-H522 lung): 18 µM

O=c1c(F)cn2c(=O)n1CCCCCCCn1c(=O)c(F)cn(c1=O)CCCCCCC2
TGI (CAKI-1 renal): > 100 µM | TGI (HT29 colon): > 100 µM | TGI (786-0 renal): > 100 µM | TGI (T-47D breast): > 100 µM | TGI (A549 NSCLC): > 100 µM | TGI (CCRF-CEM leukemia): > 100 µM | TGI (RPMI-8226 leukemia): > 100 µM | TGI (PC-3 prostate): > 100 µM | TGI (M14 melanoma): > 100 µM | TGI (NCI-H522 lung): > 100 µM

O=C(NCc1ccccc1)c1cc2ccccc2oc1=Nc1cccc(C(F)(F)F)c1
TGI (CAKI-1 renal): > 100 µM | TGI (HT29 colon): > 100 µM | TGI (786-0 renal): > 100 µM | TGI (T-47D breast): > 100 µM | TGI (A549 NSCLC): > 100 µM | TGI (CCRF-CEM leukemia): > 100 µM | TGI (RPMI-8226 leukemia): > 100 µM | TGI (PC-3 prostate): > 100 µM | TGI (M14 melanoma): > 100 µM | TGI (NCI-H522 lung): > 100 µM

COc1ccc2ccc3oc(=O)c(C)cc3c2c1
TGI (CAKI-1 renal): > 100 µM | TGI (HT29 colon): > 100 µM | TGI (786-0 renal): > 100 µM | TGI (T-47D breast): > 100 µM | TGI (A549 NSCLC): > 100 µM | TGI (CCRF-CEM leukemia): > 100 µM | TGI (RPMI-8226 leukemia): > 100 µM | TGI (PC-3 prostate): > 100 µM | TGI (M14 melanoma): > 100 µM | TGI (NCI-H522 lung): > 100 µM

O=C(CCc1cc(O)cc(O)c1)NCCc1cc(OCc2ccccc2)cc(OCc2ccccc2)c1
TGI (CAKI-1 renal): 36.8 µM | TGI (HT29 colon): 41.9 µM | TGI (786-0 renal): 41 µM | TGI (T-47D breast): 39.3 µM | TGI (A549 NSCLC): 23.6 µM | TGI (CCRF-CEM leukemia): 50.8 µM | TGI (RPMI-8226 leukemia): 54 µM | TGI (PC-3 prostate): 23.6 µM | TGI (M14 melanoma): 34.8 µM | TGI (NCI-H522 lung): 28.2 µM

Cc1c2cccc-2c2cc(O)c3ccccc3c2n1-c1ccc(N(C)C)cc1
TGI (CAKI-1 renal): 31.7 µM | TGI (HT29 colon): 31.4 µM | TGI (786-0 renal): 33.1 µM | TGI (T-47D breast): 0.829 µM | TGI (A549 NSCLC): 31.6 µM | TGI (CCRF-CEM leukemia): 32.8 µM | TGI (RPMI-8226 leukemia): 26.6 µM | TGI (PC-3 prostate): 23.9 µM | TGI (M14 melanoma): 27.9 µM | TGI (NCI-H522 lung): 33 µM

CCOC1C=CC(=O)C(CO)O1 (stereo not given)
TGI (CAKI-1 renal): 27.3 µM | TGI (HT29 colon): 25.4 µM | TGI (786-0 renal): 14.2 µM | TGI (T-47D breast): 24.9 µM | TGI (A549 NSCLC): 34.9 µM | TGI (CCRF-CEM leukemia): 6.07 µM | TGI (RPMI-8226 leukemia): 6 µM | TGI (PC-3 prostate): 28.9 µM | TGI (M14 melanoma): 31.8 µM | TGI (NCI-H522 lung): 3.52 µM

Source: PubChem BioAssay (NCI)
